The values that follow are results of earlier work, collected in US12234492B2, “Microorganism for fermentative production of 2-phenylethanol from gaseous substrates” (LanzaTech, Inc., priority 2020, dated 2025).

The test system of data set [1] is Staphylococcus aureus. As to conditions: range given jointly for S. aureus and E. faecium; Cone et al. 1990.
For data set [2], the system named is Enterococcus faecium. As to conditions: range given jointly for S. aureus and E. faecium; Cone et al. 1990.

Each structure is given as a SMILES string. Several values for one entry are separate records, joined by “and”; a condition that tells them apart may be missing. Equal values may be shown once.

`OCCc1ccccc1` [2-PE, 2-phenylethanol]: the growth inhibitory level is 26-43 mM and 3.2-5.3 g/L in data set [1]; 26-43 mM and 3.2-5.3 g/L in data set [2].
